Source: article PMC2365111, “Cytotoxicity of Poly(Phenolic)Sulfonates and Their Sodium Salts in L1210 Lymphoid Leukemia Cells” (Metal-Based Drugs, 1998)

How the values were obtained:
L1210 DNA synthesis = assay: Incorporation of labeled precursor into DNA; format: cell-based, mouse; settings: 60 min, N=6
Source text: (§1) CYTOTOXlCITY OF POLY(PHENOLIC)SULFONATES AND THEIR SODIUM SALTS IN L1210 LYMPHOID LEUKEMIA CELLS Fei Wang, Amy E. Warren, Cheryl R. Barnes and Iris H. Hall* Division of Medicinal Chemistry and Natural Products University of North Carolina Chapel Hill, N.C. […] Because ofthese properties it was surmised that these poly(phenolic)sulfonated compounds may have antineoplastic activity. METHODS Source of Compounds Test compounds were supplied by GeneLabs, Inc. [Redwood City, CA [Table 1]. Radioisotopes were obtained from New England Nuclear [Dupont, Boston, MA]. Substrates and co-factors were purchased om Sigma Chemical Co., [St Louis, MO]. Pentosan sulfate and other antineoplastic standards were obtained from Sigma Chemical Co. Tumor lines were obtained from American Type Culture Collection [Rockville, MD]. 147 Vol. 5, No. 3, 1998 Cytotoxicity ofSodium Poly(Phenolic)Sulfonates in L1210 Lymphoid Leukemia Cells Table 1 Structures of Poly(phenolic)sulfonate Compounds O2R" n Compound R' R" n MW # G1-2041 H OH 8 1489.46 G1-2029 H OH 6 1117.09 G1-2030 H OH 4 744.73 GI-2021 CH3 ONa 8 1777.5 G1-2057 CH3 ONa 4 888.75 GI-2158 CH3 ONa 6 1333.13 GI-2063 OCH3 ONa 8 2001.65 G1-2042 OAc ONa 8 2017.73 Cytotoxicity Poly(phenolic)sulfonates were tested for cytotoxic activity by homogenizing drug in 0.05% Tween 80/H20 to give a mg/ml stock concentration. These solutions were sterilized by passing them through an acrodisc ([…]). The following cell lines were maintained by literature techniques: murine L1210 lymphoid leukemia, P-388 lymphocytic leukemia, rat UMR 106 osteosarcoma, human Tmolt3 acute lymphoblastic T cell leukemia, HUT-8 lymphoma, HeLa-S suspended cervical carcinoma, HeLa solid cervical carcinoma, KB epidermoid nasopharynx, A431 epidermoid carcinoma, colorectal adenocarcinoma SW480, HCT-8 ileocecal adenocarcinoma, lung bronchogenic MB-9812, A549 lung carcinoma, and glioma HS683. Geran et al.'s protocol was used to assess the cytotoxicity of the compounds and standards in each cell line. Cell numbers were determined by the trypan blue exclusion technique. Solid tumor cytotoxicity was determined by Leibovitz et al. 's method utilizing crystal violeeOH and read at 562 nm (Molecular Devices). Values for cytotoxicity were expressed as EDs0 g/ml, i.e. the concentration ofthe compound inhibiting 50% ofcell growth. A value of less than 4 µg/ml was required for significant activity ofgrowth inhibition. Incorporation Studies Incorporation of labeled precursors into 3H-DNA, 3H -RNA and 3H -protein for 10 L1210 cells was obtained. The concentration response for inhibition of DNA, RNA and protein synthesis of the compounds at 25, 50 and 100 l.tM was determined for 60 min incubations. Incorporation of 14C -glycine (53.0 mCi/mmol) into purines was obtained by the method of Cadman et al.[12]. Incorporation of 4C- formate (53.0 mCi/mmol) into pyrimidines was determined by the method of Christopherson et al.[13]. Enzyme Assays Inhibition of various enzyme activities was performed by first preparing the appropriate L1210 cell homogenates or subcellular fractions, then adding the drug to be tested during the enzyme assay. For the concentration response studies, inhibition of enzyme activity was determined at 25, 50 and 100 l.tM of compounds G1-2021, G1-2029, GI-2041 and G1-2063 after 60 min incubations. DNA polymerase Ot activity was determined in cytoplasmic extracts isolated by Eichler et aL's method. The DNA polymerase assay was described by Sedwick et al.[15] using 3H-TTP. Messenger-, ribosomal- and transfer-RNA polymerase enzymes were isolated with different concentrations of ammonium sulfate; individual RNA polymerase activities were determined using 3H -UTP 16,17]. Ribonucleoside reductase activity was measured using 4C -CDP with dithioerythritol. The deoxyribonucleotides 4C -dCDP were separated from the ribonucleotides by TLC on PEI plates. […]

L1210 RNA synthesis = assay: Incorporation of labeled precursor into RNA; format: cell-based, mouse; settings: 60 min, N=6
Source text: as §1, with “Enzyme Assays Inhibition of various enzyme activities was performed by first preparing the appropriate L1210 cell homogenates or subcellular fractions, then adding the drug to be tested during the enzyme assay. For the concentration response studies, inhibition of enzyme activity was determined at 25, 50 and 100 l.tM of compounds G1-2021, G1-2029, GI-2041 and G1-2063 after 60 min incubations.” left out, “The DNA polymerase assay was described by Sedwick et al.[15] using 3H-TTP.” left out, “dithioerythritol.” for “dithioerythritol. The deoxyribonucleotides 4C -dCDP were separated from the ribonucleotides by TLC on PEI plates.”

L1210 protein synthesis = assay: Incorporation of labeled precursor into protein; format: cell-based, mouse; settings: 60 min, N=6
Source text: as §1

rRNA polymerase = target: T1, rRNA polymerase (Mus musculus, UniProt O35134); assay: Ribosomal-RNA polymerase activity, L1210; format: biochemical; settings: 60 min, N=6
T1 construct: Messenger-, ribosomal- and transfer-RNA polymerase enzymes were isolated with different concentrations of ammonium sulfate; endogenous in cells; host or cells: L1210 murine lymphoid leukemia cells, ammonium sulfate fraction
Source text: as §1

[1] = system: L1210 de novo purine synthesis; assay: 14C-glycine incorporation into purines; format: cell-based, mouse; settings: 60 min, N=6
Source text: as §1

PRPP amido transferase = target: T2, PRPP amido transferase (Mus musculus, UniProt Q8CIH9); assay: PRPP amidotransferase activity, L1210; format: biochemical; settings: 60 min, N=6
T2 construct: preparing the appropriate L1210 cell homogenates or subcellular fractions; endogenous in cells; host or cells: L1210 murine lymphoid leukemia cells, homogenate or subcellular fraction
Source text: as §1, with “Enzyme Assays Inhibition of various enzyme activities was performed by first preparing the appropriate L1210 cell homogenates or subcellular fractions, then adding the drug to be tested during the enzyme assay. For the concentration response studies, inhibition of enzyme activity was determined at 25, 50 and 100 l.tM of compounds G1-2021, G1-2029, GI-2041 and G1-2063 after 60 min incubations.” left out, “The DNA polymerase assay was described by Sedwick et al.[15] using 3H-TTP.” left out, “dithioerythritol.” for “dithioerythritol. The deoxyribonucleotides 4C -dCDP were separated from the ribonucleotides by TLC on PEI plates.”

[2] = system: L1210 de novo pyrimidine synthesis; assay: 14C-formate incorporation into pyrimidines; format: cell-based, mouse; settings: 60 min, N=6
Source text: as §1

[3] = target: T3, Thymidine monophosphate kinase (Mus musculus, UniProt P97930); assay: TMP kinase activity, L1210; format: biochemical; settings: 60 min, N=6
T3 construct: preparing the appropriate L1210 cell homogenates or subcellular fractions; endogenous in cells; host or cells: L1210 murine lymphoid leukemia cells, homogenate or subcellular fraction
T3 sequence (P97930 1-212): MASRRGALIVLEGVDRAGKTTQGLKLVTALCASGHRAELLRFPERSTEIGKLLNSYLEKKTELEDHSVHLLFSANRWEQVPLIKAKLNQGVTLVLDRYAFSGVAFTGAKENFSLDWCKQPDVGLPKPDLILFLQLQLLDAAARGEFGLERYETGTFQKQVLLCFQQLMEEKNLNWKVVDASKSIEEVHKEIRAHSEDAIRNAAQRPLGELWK
Source text: as §1

[4] = system: Thymidine diphosphate kinase; assay: TDP kinase activity, L1210; format: biochemical, mouse; settings: 60 min, N=6
Source text: as §1

L1210 d[NTP] pool levels = assay: Deoxyribonucleoside triphosphate pool levels; format: cell-based, mouse; settings: 100 μM, 60 min, N=6
Source text: as §1

T2 sequence (Q8CIH9 12-517): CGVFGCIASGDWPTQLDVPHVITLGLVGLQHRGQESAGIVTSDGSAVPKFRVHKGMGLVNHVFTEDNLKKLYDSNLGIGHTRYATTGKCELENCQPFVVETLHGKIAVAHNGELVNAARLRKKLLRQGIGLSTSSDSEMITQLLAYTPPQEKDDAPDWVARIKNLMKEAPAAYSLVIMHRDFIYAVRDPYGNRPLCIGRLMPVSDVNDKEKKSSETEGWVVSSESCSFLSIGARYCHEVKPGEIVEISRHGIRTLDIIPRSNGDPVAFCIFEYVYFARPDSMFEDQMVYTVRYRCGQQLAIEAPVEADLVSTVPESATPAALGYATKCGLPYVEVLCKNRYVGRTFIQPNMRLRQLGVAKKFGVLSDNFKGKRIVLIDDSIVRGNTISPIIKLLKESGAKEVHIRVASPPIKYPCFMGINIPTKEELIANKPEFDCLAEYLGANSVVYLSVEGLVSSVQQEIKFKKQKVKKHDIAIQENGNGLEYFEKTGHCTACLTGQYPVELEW

| SMILES | DNA synthesis (L1210 DNA synthesis; 25 μM) | DNA synthesis (L1210 DNA synthesis; 50 μM) | DNA synthesis (L1210 DNA synthesis; 100 μM) | RNA synthesis (L1210 RNA synthesis; 25 μM) | RNA synthesis (L1210 RNA synthesis; 50 μM) | Protein synthesis (L1210 protein synthesis; 50 μM) | Protein synthesis (L1210 protein synthesis; 100 μM) | rRNA polymerase (rRNA polymerase; 25 μM) | rRNA polymerase (rRNA polymerase; 50 μM) | rRNA polymerase (rRNA polymerase; 100 μM) | Purine de novo synthesis ([1]; 25 μM) | Purine de novo synthesis ([1]; 50 μM) | Purine de novo synthesis ([1]; 100 μM) | PRPP amido transferase (PRPP amido transferase; 50 μM) | Pyrimidine de novo synthesis ([2]; 25 μM) | Pyrimidine de novo synthesis ([2]; 100 μM) | Thymidine monophosphate kinase ([3]; 25 μM) | Thymidine diphosphate kinase ([4]; 100 μM) | d(ATP) (L1210 d[NTP] pool levels) | d(TTP) (L1210 d[NTP] pool levels) | other results |
| --- | --- | --- | --- | --- | --- | --- | --- | --- | --- | --- | --- | --- | --- | --- | --- | --- | --- | --- | --- | --- | --- |
| COc1c2cc(S(=O)(=O)[O-])cc1Cc1cc(S(=O)(=O)[O-])cc(c1OC)Cc1cc(S(=O)(=O)[O-])cc(c1OC)Cc1cc(S(=O)(=O)[O-])cc(c1OC)Cc1cc(S(=O)(=O)[O-])cc(c1OC)Cc1cc(S(=O)(=O)[O-])cc(c1OC)Cc1cc(S(=O)(=O)[O-])cc(c1OC)Cc1cc(S(=O)(=O)[O-])cc(c1OC)C2.[Na+].[Na+].[Na+].[Na+].[Na+].[Na+].[Na+].[Na+] [GI-2021] | 105+6% of Control | 77+5% of Control | 39+5% of Control | 109+6% of Control | 94+6% of Control | 64+4% of Control | 59+3% of Control | 122+7% of Control | 120+5% of Control | 123+4% of Control | 121+6% of Control | 118+4% of Control | 74+6% of Control | 61+4% of Control | 98+6% of Control | 88+5% of Control | 110+6% of Control | 26+3% of Control | 65+ 4% of Control | 88+6% of Control | RNA synthesis (L1210 RNA synthesis; 100 μM): 78+4% of Control; Protein synthesis (L1210 protein synthesis; 25 μM): 80+4% of Control; PRPP amido transferase (PRPP amido transferase; 25 μM): 62+5% of Control; Thymidine monophosphate kinase ([3]; 100 μM): 32+3% of Control; Thymidine diphosphate kinase ([4]; 50 μM): 32+3% of Control; d(CTP) (L1210 d[NTP] pool levels): 67+5% of Control; d(GTP) (L1210 d[NTP] pool levels): 79+4% of Control |
| O=S(=O)(O)c1cc2c(O)c(c1)Cc1cc(S(=O)(=O)O)cc(c1O)Cc1cc(S(=O)(=O)O)cc(c1O)Cc1cc(S(=O)(=O)O)cc(c1O)Cc1cc(S(=O)(=O)O)cc(c1O)Cc1cc(S(=O)(=O)O)cc(c1O)C2 [GI-2029] | – | 78+3% of Control | – | – | 91+5% of Control | 80+3% of Control | 71+3% of Control | 115+6% of Control | 102+4% of Control | 107+5% of Control | 130+6% of Control | 97+6% of Control | – | 30+3% of Control | 99+6% of Control | 93+7% of Control | 118+6% of Control | 27+3% of Control | 68+5% of Control | 98+5% of Control | Pyrimidine de novo synthesis ([2]; 50 μM): 96+ 5% of Control; Thymidine monophosphate kinase ([3]; 50 μM): 50+5% of Control; Thymidine diphosphate kinase ([4]; 25 μM): 57+3% of Control; d(CTP) (L1210 d[NTP] pool levels): 96+ 5% of Control |
| O=S(=O)(O)c1cc2c(O)c(c1)Cc1cc(S(=O)(=O)O)cc(c1O)Cc1cc(S(=O)(=O)O)cc(c1O)Cc1cc(S(=O)(=O)O)cc(c1O)Cc1cc(S(=O)(=O)O)cc(c1O)Cc1cc(S(=O)(=O)O)cc(c1O)Cc1cc(S(=O)(=O)O)cc(c1O)Cc1cc(S(=O)(=O)O)cc(c1O)C2 [GI-2041] | 98+6% of Control | 84+5% of Control | 33+5% of Control | 130+5% of Control | – | 70+3% of Control | 70+3% of Control | 112+5% of Control | – | – | 85+5% of Control | – | 54+3% of Control | 38+3% of Control | 112+6% of Control | – | 80+5% of Control | 54+3% of Control | 62+ 5% of Control | 89+6% of Control | PRPP amido transferase (PRPP amido transferase; 100 μM): 10+2% of Control; Pyrimidine de novo synthesis ([2]; 50 μM): 97+5% of Control; Thymidine monophosphate kinase ([3]; 50 μM): 41+3% of Control; Thymidine diphosphate kinase ([4]; 25 μM): 89+5% of Control; Thymidine diphosphate kinase ([4]; 50 μM): 64+5% of Control; d(GTP) (L1210 d[NTP] pool levels): 74+5% of Control |
